Test results reported in patent US5378706A, “Fused-thiazole derivatives active on the cholinergic system, and pharmaceutical compositions containing same” (Sanofi, priority 1987, dated 1995).

How the values were obtained:
[1] = system: M1 central muscarinic cholinergic receptors; experiment: Antagonism of rotations induced by intrastriatal injection of pirenzepine in mice; type: in vivo, mice (Swiss, CD 1); conditions: for Pirenzepine antagonism ED50 i.p.: 15 minutes before intrastriatal pirenzepine 1 μg; for Pirenzepine antagonism ED50 p.o.: 30 minutes before intrastriatal pirenzepine 1 μg
Procedure: Pirenzepine (PZ) is a specific antagonist of the M1 central muscarinic cholinergic receptors. The intrastriatal injection of PZ into mice induces rotatory behavoir. The antagonism of this behavoir by the products according to the invention was studied.
The products according to the invention are administered either intraperitoneally (i.p.) or orally (p.o.) after solubilization in distilled water or suspension in a 5% solution of gum arabic. The control animals receive the pure solvent under the same conditions.
The animals used are female mice (Swiss, CD 1, Charles River, France) with a body weight of between 25 and 30 grams.
The pirenzepine is dissolved in a phosphate buffer and the pH of the solution is 6.
The test products or their solvents are administered in a volume of 0.4 ml per 20 g of body weight, either by i.p. injection or orally via an esophageal tube.
The number of contralateral rotations (rotations in the opposite direction to the side injected) was counted for three 2-minute periods after injection of the pirenzepine: 2nd to 4th, 8th to 10th and 13th to 15th minutes. Each treatment consists of 3 to 4 doses and 10 animals per dose. The total number of rotations and the percentage antagonism with respect to the control group are calculated for each treatment.

[2] = target: T1, M1 -type muscarinic cholinergic receptor (Rattus norvegicus, UniProt P08482); experiment: biochemical; type: binding; conditions: for IC50: rat hippocampus homogenate, 3H-PZ 1 nM, 2 hours at 4° C., pH 7.40, read-out: IC50 3H-PZ (M1); for ratio R of the IC50 values for the M1 and M2 receptors: selectivity, values correspond to IC50 M2 / IC50 M1
T1 sequence (P08482 1-460): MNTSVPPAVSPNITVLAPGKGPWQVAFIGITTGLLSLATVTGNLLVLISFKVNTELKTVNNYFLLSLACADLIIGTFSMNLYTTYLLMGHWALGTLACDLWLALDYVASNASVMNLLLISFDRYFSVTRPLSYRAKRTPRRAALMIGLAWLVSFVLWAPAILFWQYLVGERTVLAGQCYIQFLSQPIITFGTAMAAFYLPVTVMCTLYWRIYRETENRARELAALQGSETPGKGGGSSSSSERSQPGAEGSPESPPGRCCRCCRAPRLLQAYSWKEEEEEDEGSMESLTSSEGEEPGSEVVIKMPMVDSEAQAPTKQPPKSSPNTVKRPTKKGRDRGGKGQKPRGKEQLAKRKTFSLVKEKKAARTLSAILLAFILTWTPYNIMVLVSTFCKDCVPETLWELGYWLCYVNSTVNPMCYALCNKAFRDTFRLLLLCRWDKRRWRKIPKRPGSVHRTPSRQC
Procedure: The interaction of the molecules with the M1 -type muscarinic receptors was studied by in vitro measurement, on a rat hippocampus homogenate, of the displacement of tritiated pirenzepine from its specific binding sites. Aliquots (10 μl) of a 5% (w/v) rat hippocampus homogenate in an Na2 HPO4 buffer (50 mM, pH 7.40) are incubated for 2 hours at 4° C. in the presence of ^3 H-PZ (76 Ci/mmol; final concentration 1 nM) and increasing concentrations of the test product. The final volume is 2 ml. The reaction is stopped by centrifugation for 10 minutes at 50,000×g. After decantation and washing of the residues, the bound radioactivity is counted by liquid scintillation. The non-specific binding is determined in the presence of 10 μM atropine sulfate.

[3] = target: T2, M2 -type muscarinic cholinergic receptor (Cavia porcellus, UniProt H0VRN8); experiment: Affinity for the M2-type muscarinic cholinergic receptor, displacement of tritiated N-methylscopolamine (3H-NMS) on smooth guinea-pig ileum muscle homogenate; type: binding; conditions: guinea-pig ileum smooth muscle homogenate, 3H-NMS 0.3 nM, 20 minutes at 30° C., pH 7.5; read-out: IC50 3H-NMS (M2)
T2 construct: on a smooth guinea-pig ileum muscle homogenate; from tissue; host or cells: guinea-pig ileum smooth muscle homogenate
T2 sequence (H0VRN8 1-466): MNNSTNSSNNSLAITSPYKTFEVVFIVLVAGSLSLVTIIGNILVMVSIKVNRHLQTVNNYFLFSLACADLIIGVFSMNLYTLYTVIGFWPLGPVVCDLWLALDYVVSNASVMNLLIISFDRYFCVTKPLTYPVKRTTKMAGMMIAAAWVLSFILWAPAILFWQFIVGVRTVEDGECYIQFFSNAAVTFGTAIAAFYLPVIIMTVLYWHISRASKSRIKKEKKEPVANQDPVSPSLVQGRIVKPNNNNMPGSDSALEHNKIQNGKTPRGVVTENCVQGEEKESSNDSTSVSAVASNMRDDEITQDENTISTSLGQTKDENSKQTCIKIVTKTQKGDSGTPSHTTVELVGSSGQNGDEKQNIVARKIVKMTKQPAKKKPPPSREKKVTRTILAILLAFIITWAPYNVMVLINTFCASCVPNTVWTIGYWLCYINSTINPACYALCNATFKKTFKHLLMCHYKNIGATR
Procedure: The M1 -type receptors are concentrated in certain regions of the brain, such as the hippocampus, the cerebral cortex and the striatum, and also in the sympathetic ganglia. These binding sites can be selectively labeled with tritiated pirenzepine (^3 H-PZ). The M2 -type receptors predominate in the heart and the ileum and can be labeled with tritiated N-methyl-scopolamine (^3 H-NMS). The selectivity of the products of the invention with respect to the M1 and M2 sites was determined by studying their in vitro interaction with ^3 H-PZ and ^3 H-NMS firmly bound with a high affinity to rat hippocampus membranes and smooth guinea-pig ileum muscle, respectively.
The interaction with the M2 -type muscarinic receptors was studied by in vitro measurement, on a smooth guinea-pig ileum muscle homogenate, of the displacement of tritiated N-methylscopolamine from its specific binding sites. […] The final volume is 1 ml. The reaction is stopped by centrifugation for 5 minutes at 15,000×g. The non-specific binding is determined in the presence of 10 mM atropine sulfate.
The IC50 for ^3 H-PZ displacement represents the affinity for the M1 receptor; the IC50 for ^3 H-NMS displacement represents the affinity for the M2 receptor.

| IC50 [2] [µM] | ratio R of the IC50 values for the M1 and M2 receptors [2] | IC50 [3] [µM] | SMILES | Pirenzepine antagonism ED50 i.p. [1] [mg/kg] | Pirenzepine antagonism ED50 p.o. [1] [mg/kg] |
| --- | --- | --- | --- | --- | --- |
| – | – | – | c1ccc(-c2cnc(NCCN3CCOCC3)s2)cc1 [SR 44285 A] | 3 | – |
| – | – | – | c1ccc2c(c1)CCCc1sc(NCCCN3CCOCC3)nc1-2 [SR 44392 A] | 3 | – |
| 8.1 | 12 | 100 | CCN(CC)CCNc1nc(C)cs1 [SR 44422 A] | – | – |
| 1.5 | 46 | 70 | CCN(CC)CCCNc1nc(-c2ccccc2)c(C)s1 [SR 44434 A] | – | – |
| 1.7 | 29 | 50 | CCN(CC)CCNc1nc(C)c(-c2ccccc2)s1 [SR 44436 A] | – | – |
| 0.43 | 7 | 3 | CCN(CC)CCNc1nc(-c2ccccc2)c(-c2ccccc2)s1 [SR 44437 A] | – | – |
| 1 | 60 | 60 | c1ccc(-c2cnc(NCCN3CCCC3)s2)cc1 [SR 44438 A] | – | – |
| 6 | 13 | 80 | CCCCN(CCCC)CCNc1nc(-c2ccc(F)cc2)cs1 [SR 44451 A] | – | – |
| 2.6 | 15 | 40 | COc1ccccc1-c1csc(NCCCN(C)C)n1 [SR 44465 A] | – | – |
| 1.2 | 18 | 22 | CCN(CC)CCNc1nc(C23CC4CC(CC(C4)C2)C3)cs1 [SR 44468 A] | – | – |
| 2.6 | 23 | 60 | CCN(CC)CCNc1nc(-c2ccc([N+](=O)[O-])cc2)cs1 [SR 44469 A] | – | – |
| 1.7 | 20 | 34 | Cc1nc(NCCN2CCCC2)sc1-c1ccccc1 [SR 44488 A] | – | – |
| 0.3 | 6 | 2 | Cc1nc(NCCN(C(C)C)C(C)C)sc1-c1ccccc1 [SR 44489 A] | – | – |
| 1.5 | 16 | 25 | c1ccc(-c2cnc(NCCN3CCCCC3)s2)cc1 [SR 44490 A] | – | – |
| 0.8 | 10 | 8.5 | CC(C)N(CCNc1ncc(-c2ccccc2)s1)C(C)C [SR 44491 A] | – | – |
| 3.6 | 8 | 28 | CCCCN(CCCC)CCNc1ncc(-c2ccccc2)s1 [SR 44492 A] | – | – |
| 0.2 | 17 | 3.4 | CCN(CC)CCCNc1nc(Cc2ccccc2)c(-c2ccccc2)s1 [SR 44515 A] | – | – |
| 3.4 | 22 | 75 | c1ccc2cc(-c3csc(NCCN4CCCCC4)n3)ccc2c1 [SR 44516 A] | – | – |
| 0.2 | 120 | 24 | CN(C)CCCNc1nc(C2CCCCC2)cs1 [SR 44574 A] | – | – |
| 7 | > 14 | > 100 | c1csc(-c2csc(NCCN3CCOCC3)n2)c1 [SR 44575 A] | – | – |

| IC50 [2] [µM] | ratio R of the IC50 values for the M1 and M2 receptors [2] | IC50 [3] [µM] | SMILES | Pirenzepine antagonism ED50 i.p. [1] [mg/kg] | Pirenzepine antagonism ED50 p.o. [1] [mg/kg] |
| --- | --- | --- | --- | --- | --- |
| 2 | 15 | 30 | Cc1sc(NCCCN(C)C)nc1-c1ccccc1 [SR 44769 A] | – | – |
| 0.6 | 67 | 40 | CN1CCCC1CCNc1nc(-c2ccc(F)cc2)cs1 (stereo not shown) [SR 44786 A] | – | – |
| 5 | 8 | 40 | CN(C)CCCNc1nc(-c2cccc([N+](=O)[O-])c2)cs1 [SR 44791 A] | – | – |
| 6 | > 17 | > 100 | Cc1cc(C)c(-c2csc(NCc3ccccn3)n2)c(C)c1 [SR 44813 A] | – | – |
| 1.4 | 7 | – | Cc1cc(C)c(-c2csc(NCCC3CCCN3C)n2)c(C)c1 (stereo not shown) [SR 44814 A] | – | 0.2 |
| 2.4 | > 42 | > 100 | Cc1ccc(-c2csc(NCCCN(C)C)n2)cc1 [SR 44832 A] | – | – |
| 0.6 | > 167 | > 100 | Fc1ccc(-c2csc(NCc3ccncc3)n2)cc1 [SR 44840 A] | – | – |
| 0.28 | > 360 | > 100 | Cc1cc(C)c(-c2csc(NCc3ccncc3)n2)c(C)c1 [SR 44864 A] | – | – |
| 6.3 | 11 | 70 | NCCCNc1nc(-c2ccc(F)cc2)cs1 [SR 44886 A, 2-[(3-Aminopropyl)amino]-4-(4-fluorophenyl)thiazole] | – | – |
| – | – | – | Cc1cc(C)c(-c2csc(NCCCN(C(C)C)C(C)C)n2)c(C)c1 [SR 44887 A] | – | 0.3 |
| 6 | > 17 | > 100 | c1ccc(-c2nc(NCc3cccnc3)sc2-c2ccccc2)cc1 [SR 44904 A] | – | – |
| 2.4 | 25 | 60 | Cc1cc(C)c(-c2csc(NCCc3ccccn3)n2)c(C)c1 [SR 44905 A] | – | – |
| 2.4 | > 42 | > 100 | c1ccc(-c2nc(NCCc3ccccn3)sc2-c2ccccc2)cc1 [SR 44906 A] | – | – |
| 0.13 | 31 | 4 | Cc1cc(C)c(-c2csc(NCCN(C(C)C)C(C)C)n2)c(C)c1 [SR 44908 A] | – | – |
| 0.13 | 38 | 5 | CC(C)N(CCCNc1nc(-c2ccc(F)cc2F)cs1)C(C)C [SR 44916 A] | – | – |
| – | – | – | Cc1cc(C)c(-c2csc(NCCCN)n2)c(C)c1 [SR 44949 A, 2-[(3-Aminopropyl)amino]-4-(2,4,6-trimethylphenyl)thiazole] | – | 10 |
| 0.12 | 50 | 6 | CCc1nc(NCCCN(CC)CC)sc1-c1ccccc1 [SR 44963 A] | – | – |
| 4.5 | 22 | 100 | c1ccc(-c2cnc(NCCc3ccncc3)s2)cc1 [SR 44966 A] | – | – |
| 1.8 | 22 | 40 | CN(C)CCCNc1ncc(-c2ccccc2)s1 [SR 44967 A] | – | – |
| 3 | > 33 | > 100 | CC(C)(c1ccccc1)c1csc(NCc2cccnc2)n1 [SR 45106 A] | – | – |
